Results from publication PMC9536293, “Targeting extracellular matrix remodeling sensitizes glioblastoma to ionizing radiation” (Neuro-Oncology Advances, 2022).

Key:
Glioblastoma (GBM) = system: Glioblastoma (GBM); set-up: method as in PMID 32478924; conditions: added to radiotherapy; GBM patients; on average; cited from earlier work
913-GSCs = assay: Invasion through a Matrigel/HA matrix (XCELLigence); assay type: cell-based, human; conditions: shMT1-MMP 913-GSCs; 10 ng/ml
Protocol: XCELLigence.—Invasion was performed as per the manufacturer’s instructions. Briefly, 10^4 913-GSCs and GBM1 cells were plated on top of uncoated or 0.4% Growth Factor Reduced Matrigel/10 µg/ml hyaluronic acid (HA) coated wells (CIM plate 16). HA was used as it is a major component of brain ECM. Cells were left at room temperature for 30 min to settle and then the plates were placed into an xCELLigence RTCA DP instrument (ACEA Bioscience). Measurements were taken every 15 min for 48 h or up to 6 days. Cell Index (CI) curves normalized to initial seeding were recorded. 3D Decellularized Brain matrix: 10^4 913-GSC cells were embedded in a 3D decellularized mouse brain matrix, derived as in,[16],[17] which retains the architecture and major components of brain ECM. Briefly, Nu/nu mouse brains were cut into small pieces and submerged in decellularizing solution [0.1% (v/v) ammonium hydroxide (Sigma) and 1% (v/v) Triton X-100 (Sigma) in distilled water] for 2 days. After washing in distilled water, the derived ECM was digested with pepsin (1 mg/ml; Sigma) in HCl (0.01 N) for 2 days at room temperature until visible ECM particle disappeared. To make hydrogels, the ECM solution was mixed with 10 × PBS, dilute to the desired final concentration (20 mg/ml) with ice-cold distilled water and adjust to pH7 by NaOH (1 M). […] Invadopodia length was measured and quantified with ImageJ.

Molecule | increase in survival compared to radiotherapy alone (Glioblastoma (GBM)) | invasion of MT1-MMP depleted cells through Matrigel/HA matrix (913-GSCs)
Cn1nnc2c(C(N)=O)ncn2c1=O [TMZ, temozolomide] | 2.5 months | –
recombinant MMP2: Recombinant MMP2 purchased from R&D Systems, used at 10 ng/ml (protein, UniProt P08253 110-660, looked up) 72 kDa type IV collagenase: YNFFPRKPKWDKNQITYRIIGYTPDLDPETVDDAFARAFQVWSDVTPLRFSRIHDGEADIMINFGRWEHGDGYPFDGKDGLLAHAFAPGTGVGGDSHFDDDELWTLGEGQVVRVKYGNADGEYCKFPFLFNGKEYNSCTDTGRSDGFLWCSTTYNFEKDGKYGFCPHEALFTMGGNAEGQPCKFPFRFQGTSYDSCTTEGRTDGYRWCGTTEDYDRDKKYGFCPETAMSTVGGNSEGAPCVFPFTFLGNKYESCTSAGRSDGKMWCATTANYDDDRKWGFCPDQGYSLFLVAAHEFGHAMGLEHSQDPGALMAPIYTYTKNFRLSQDDIKGIQELYGASPDIDLGTGPTPTLGPVTPEICKQDIVFDGIAQIRGEIFFFKDRFIWRTVTPRDKPMGPLLVATFWPELPEKIDAVYEAPQEEKAVFFAGNEYWIYSASTLERGYPKPLTSLGLPPDVQRVDAAFNWSKNKKTYIFAGDKFWRYNEVKKKMDPGFPKLIADAWNAIPDNLDAVVDLQGGGHSYFFKGAYYLKLENQSLKSVKFGSIKSDWLGC | – | restored the cells invasive capacity to the levels of controls
